The subject of series [1] is S. aureus. The experiment in a line: Broth microdilution MIC, PJI isolates (Example 1). It counts as cell-based, Staphylococcus aureus. To be noted: RPMI; N = 3. As for the experimental part: (§1) Imipenem, levofloxacin, tigecycline, linezolid, vancomycin, oxacillin, ceftazidime, colistin, and amikacin were tested as comparators. Testing was conducted in accordance with guidelines from the Clinical and Laboratory Standards Institute (CLSI; M7 and M100). Test organisms comprised reference strains from the American Type Culture Collection, the Centers for Disease Control Antibiotic Reference Bank and clinical isolates from the Micromyx repository.
(In general: In broth dilution the organism is exposed to a series of concentrations in liquid medium.)

Series [2] has as its system Pseudomonas aeruginosa ATCC 27853. Nature of the series: Broth microdilution MIC, QC of stock (Study 2). It counts as cell-based. How it is done: (§2) The activity of SEQ ID NO: 1 stocks against relevant ATCC reference isolates was determined by broth microdilution for QC purposes in accordance with guidelines described by the Clinical and Laboratory Standards Institute.
(§3) The wells in columns 2-12 in a standard 96-well microdilution plate were filled with 150 μL of 0.002% P-80 PBS. […] Serial two-fold dilutions were conducted through column 11. The wells of column 12 contained no drug and served as the organism growth control well. This would become the “mother” plate from which “daughter” or test plates would be prepared. The daughter plates were loaded with 190 μL of CAMHB+0.002% polysorbate-80 (P-80), or RPMI with 0.002% P-80 by hand-pipetting.
(§4) A standardized inoculum of each evaluated organism was prepared per CLSI methods. Growth from agar plates was used to prepare a 0.5 McFarland suspension in saline for each organism. The 0.5 McFarland suspensions were diluted 1:20 in saline, and the diluted suspensions were used as the test inocula. The inocula were then transferred to daughter plates by delivering 10 μL of standardized inoculum into each well of the daughter plate, resulting in a final concentration ranging between 2.5×10^5 to 5×10^5 CFU/mL per well.
(§5) Plates were stacked and covered with a lid on the top plate, placed into plastic bags, and incubated at 35° C. for 16-20 hr in ambient air. Growth in the microplates was viewed from the bottom using a plate viewer. […] The MIC was read and recorded as the lowest concentration of drug (SEQ ID NO: 1) that inhibited visible growth of the organism.

Series [3] deals with Escherichia coli ATCC 25922. Nature of the series: Broth microdilution MIC, QC of stock (Study 2). It counts as cell-based. As for the experimental part:
as §2, §3, §4, §5

Series [4] has as its system Staphylococcus aureus ATCC 29213. The experiment in a line: Broth microdilution MIC, QC of stock (Study 2). It counts as cell-based. How it is done: as §2, §3, §4, §5
Series [5] concerns Enterobacterales. The experiment in a line: Broth microdilution MIC, PJI isolates (Example 1). It counts as cell-based. To be noted: RPMI; N = 22. How it is done: as §1
In series [6] the test system is S. aureus NRS 384. How it is done: (§6) Base test media for the TK assay were phosphate-buffered saline (PBS), water, and cation-adjusted Mueller-Hinton broth (CAMHB), all adjusted to pH 7.4 with sodium hydroxide (NaOH) or hydrochloric acid (HCl) and then filter-sterilized.
(§7) Double strength (2×) Dey/Engley neutralizing broth (D/E) was used as a neutralizer for dilution and plating during determination of CFU/mL at each TK assay time point. Track plating was conducted on TSAB for Staphylococcus aureus NRS382 and on TSA without sheep's blood for all other organisms. TSA was used for spread plate enumeration of CFU/mL during a pilot study testing toxicity of D/E to bacteria and neutralization of SEQ ID NO: 1 in D/E.
(§8) Drug stocks of 5120 μg/mL in water at pH 5 were diluted in PBS pH-7.4 to 100× the final concentrations desired for each TK assay and frozen at −20° C. until use.
(§9) The TK test panel was prepared in a 96-well deep well plate, where 890 μL of each test media and 10 μL of 100× drug stocks were added to the appropriate wells. A growth control containing no drug was included, where 10 μl of PBS (pH 7.4) was added in place of drug.
(§10) A cell suspension was prepared from growth of a freshly streaked plate equivalent to the turbidity of a 0.5 McFarland standard in PBS at (pH 7.4). Deep-well test panels prepared as described above were inoculated with 100 μL of the 0.5 McFarland cell suspension, targeting a final inoculum of approximately 1 to 2×10^7 CFU/mL. During the TK assay, the 96 deep-well plate was left on the bench top at room temperature.
(§11) Aliquots of 100 μL were removed from the test panel immediately (0 minutes), and at 2.5, 5, 10, 15, and 30 minutes, and mixed with 100 μL 2×D/E to neutralize the rapid bactericidal activity of SEQ ID NO: 1. Cells were then serially diluted ten-fold in 2× Dey/Engley broth four times yielding a dilution series ranging from 2 to 2×10-4. Ten microliters from each step of the dilution series were track-plated in duplicate on TSA to enumerate viable counts (CFU/mL). Plates were then incubated at 35° C. overnight.
(§12) The resulting colonies were counted, and viable counts (CFU/mL) were determined from the average count of the duplicate plates. The limit of detection (LOD) for the assay was 100 CFU/mL. The LOD reflects the average CFU/ml if just one colony grew from the least diluted sample (DF=2) between the two track plate replicates, where 10 μL had been plated. Log-transformed viable counts (log10 CFU/mL) were then plotted vs. time.

Series [7] has as its system 5 test isolates. To be noted: PBS and H2O, 1× and 0.5× MIC, all evaluated organisms. As for the experimental part: as §6, §7, §8, §9, §10, §11, §12
Series [8] has as its system S. epidermidis MMX 8655. To be noted: by […]; 1× MIC; PBS and H2O. How it is done: as §6, §7, §8, §9, §10, §11, §12
The test system of series [9] is E. Coli CDC 0451. To be noted: 1× MIC, PBS, without sodium bicarbonate. As for the experimental part: as §6, §7, §8, §9, §10, §11, §12
Series [10] concerns CoNS non-epidermidis. Nature of the series: Broth microdilution MIC, PJI isolates (Example 1). It counts as cell-based, coagulase-negative staphylococci. To be noted: RPMI; N = 53. How it is done: as §1
Series [11] deals with Staphylococcus aureus SH1000. To be noted: both concentrations (1 and 5 mg/mL).
Description: A bone tunnel in the tibial canal was created using a drill with a 1.2 mm or 1.6 mm tungsten carbide drill bit. The bone tunnel was then dried and treated to stimulate acute human PJI following primary arthroplasty. A Kirschner wire implant of 2 cm long with a 0.3 cm long top hook was placed in the bone tunnel and the wound was closed. Prior to closure of the superficial skin layer, 0.1 mL of 2×10^6 planktonic Staphylococcus aureus SH1000 (CFU/rabbit) in saline was injected into the joint space. A closure was performed, and a biofilm was allowed to become established over a period of 2 days.
At 2 days post infection, irrigation and debridement (I&D) was performed on the infected joint. […] Additionally, an intravenous administration of an antibiotic was administered. Bacterial burden was determined by colony forming unit (CFU) analysis.
Animals were observed up to 28 days. […] When an animal was sick or needed to be euthanized, the implant and a part of the tibia was collected post mortem and bacterial burden was determined by CFU analysis.
The following parameters and endpoints were evaluated in this study: X-ray for proper implant placement, bacterial burden by colony forming unit analysis (CFU), general clinical signs, detailed clinical signs, body weights, body weight changes, temperature, mortality, blood culture, erythrocyte sedimentation rate (ESR), and C-reactive protein levels (CRP). […]
For series [12], the system named is P. aeruginosa CDC 0515 biofilm. Nature of the series: Microtiter plate biofilm studies (previous), resazurin viability. The text has this:
In those previous studies, mature biofilms were formed on polystyrene microtiter plates through growth in CAMHB, followed by exposure to SEQ ID NO: 1 and resazurin addition to measure cell viability.
Background: Resazurin is reduced to fluorescent resorufin, in cell work by metabolically active cells.

Series [13] deals with A. baumannii. Nature of the series: Broth microdilution MIC, PJI isolates (Example 1). It counts as cell-based, Acinetobacter baumannii. To be noted: RPMI; N = 24. How it is done: as §1

As a reminder, the MIC50 is the lowest concentration that inhibits either 50% of growth or 50% of the strains tested, depending on the study. A higher MIC50 goes with weaker potency. As a reminder, the MIC90 is an inhibitory concentration at the 90% level, which refers to growth in some studies and to a panel of isolates in others.

“And” between values parts separate entries of the source, which are not always exact repeats. Equal entries are not always repeated. Where two headings read alike, the source gives them in different places. Where no end group is shown, it is not given here. Some results are limits rather than exact numbers.

Take RRWVRRVRRVWRRVVRVVRRWVRR [SEQ ID NO: 1]: the MIC50 worked out at 0.12 µg/mL in series [1], 0.5 µg/mL in series [5], 0.06 µg/mL in series [10] and 0.25 µg/mL in [13]. The MIC90 was 0.12 µg/mL in [1], 0.5 µg/mL in [5], 0.06 µg/mL in series [10] and 0.25 µg/mL in series [13]. In addition, the MIC in series [2] (CAMHB + 0.002% P-80) turned out to be 4 µg/mL; in [2] (RPMI + 0.002% P-80), 0.5 µg/mL; in series [3] (CAMHB + 0.002% P-80) it was 2 µg/mL; in series [3] (RPMI + 0.002% P-80) it was 0.5 µg/mL; in [4] (CAMHB + 0.002% P-80), 4 µg/mL; in [4] (RPMI + 0.002% P-80), 0.12 µg/mL. The MIC in series [12] (two previous microtiter plate biofilm studies) is 8 µg/mL and 16 µg/mL. The log-kill in series [6] (0 min, 0.5 and 1× MIC in H2O, absence of sodium bicarbonate) is not below 3 log; in [6] (after […], 1× MIC in PBS +/- sodium bicarbonate), approximately 3 log; in [6] (by […], 0.5 and 1× MIC in H2O, presence of sodium bicarbonate) it was not below 3 log; in [8], approximately 3 log. Moreover, the log killing result in series [7] is “Greater than 1 log”. The “killing (log)” value in series [9] is given as more than 3. Moreover, the “body weight vs control group” value in series [11] is on record as “no statistically significant bodyweight differences”. The “decrease in cell viability (resazurin reduction)” value in series [12] (500 μg/mL, 15 minutes) was “ca. 70%”.

The record behind these values is US20240252586A1, “ENGINEERED ANTIMICROBIAL PEPTIDES AND USAGE THEREOF” (priority 2021, published 2024).
